Reference: patent US6521605B1, “Amidophosphate derivatives” (Eli Lilly and Company, priority 1998, dated 2003)

Target: T1, human GluR4B receptor (Homo sapiens, UniProt P48058)
T1 construct: expressed in transfected cells
Assay: potentiation of agonist-induced excitability of human GluR4B receptor expressed in HEK 293 cells
Format: cell-based
Details: human GluR4B expressed in HEK 293 cells
Source text: The ability of compounds of formula I to potentiate glutamate receptor-mediated response may be determined using fluorescent calcium indicator dyes (Molecular Probes, Eugene, Oreg., Fluo-3) and by measuring glutamate-evoked efflux of calcium into GluR4 transfected HEK293 cells, as described in more detail below.
In one test, 96 well plates containing confluent monolayers of HEK cells stably expressing human GluR4B (obtained as described in European Patent Application Publication Number EP-A1-583917) are prepared. The tissue culture medium in the wells is then discarded, and the wells are each washed once with 200 μl of buffer (glucose, 10 mM, sodium chloride, 138 mM, magnesium chloride, 1 mM, potassium chloride, 5 mM, calcium chloride, 5 mM, N-[2-hydroxyethyl]-piperazine-N-[2-ethanesulfonic acid], 10 mM, to pH 7.1 to 7.3). […]
Each test is then performed as follows. […] A second fluorescent reading is taken after 5 minutes incubation. 15 μl of 400 μM glutamate solution is then added to each well (final glutamate concentration 100 μM), and a third reading is taken. The activities of test compounds and cyclothiazide solutions are determined by subtracting the second from the third reading (fluorescence due to addition of glutamate in the presence or absence of test compound or cyclothiazide) and are expressed relative to enhance fluorescence produced by 100 μM, cyclothiazide.

T1 sequence (P48058 21-902): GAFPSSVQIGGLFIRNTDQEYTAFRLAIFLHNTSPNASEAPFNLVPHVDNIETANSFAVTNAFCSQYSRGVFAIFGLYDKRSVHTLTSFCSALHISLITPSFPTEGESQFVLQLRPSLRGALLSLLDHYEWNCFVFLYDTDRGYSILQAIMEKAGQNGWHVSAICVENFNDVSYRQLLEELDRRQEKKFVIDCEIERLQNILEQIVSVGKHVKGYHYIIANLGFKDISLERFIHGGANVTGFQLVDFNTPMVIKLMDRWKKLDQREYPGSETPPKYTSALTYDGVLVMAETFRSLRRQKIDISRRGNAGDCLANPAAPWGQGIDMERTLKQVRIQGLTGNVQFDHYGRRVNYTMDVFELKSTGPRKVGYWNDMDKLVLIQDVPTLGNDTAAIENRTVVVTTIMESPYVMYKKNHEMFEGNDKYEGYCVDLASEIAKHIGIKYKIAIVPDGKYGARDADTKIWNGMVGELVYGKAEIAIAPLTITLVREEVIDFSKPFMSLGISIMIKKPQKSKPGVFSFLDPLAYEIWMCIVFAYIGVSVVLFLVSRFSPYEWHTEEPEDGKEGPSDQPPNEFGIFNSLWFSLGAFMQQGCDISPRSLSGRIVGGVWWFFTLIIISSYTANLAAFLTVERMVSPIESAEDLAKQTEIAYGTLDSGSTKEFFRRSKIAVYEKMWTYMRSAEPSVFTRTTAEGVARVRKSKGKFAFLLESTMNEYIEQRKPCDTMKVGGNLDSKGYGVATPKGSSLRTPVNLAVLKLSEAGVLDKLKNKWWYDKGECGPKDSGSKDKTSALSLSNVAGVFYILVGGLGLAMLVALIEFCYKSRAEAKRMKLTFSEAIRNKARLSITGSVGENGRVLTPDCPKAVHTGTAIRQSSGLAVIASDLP

SMILES: NS(=O)(=O)c1cc2c(cc1Cl)NC(C1CC3C=CC1C3)NS2(=O)=O (stereo not shown) [cyclothiazide]
- potentiation of agonist-induced excitability of human GluR4B receptor: potentiate agonist-induced excitability
